{
  "source": "patent US5395850A",
  "about": "“6,7-epoxy paclitaxels” (Bristol-Myers Squibb Company, priority 1994, dated 1995)",
  "key": {"[1]": {"test_system": "human colon carcinoma cells HCT-116", "assay": "XTT in vitro cytotoxicity assay, HCT-116 human colon carcinoma cells", "format": "cell-based", "method": "(§1) The HCT-116/VM46 cells are cells that have been previously selected for teniposide resistance and express the multi-drug resistance phenotype, including resistance to paclitaxel. Cytotoxicity was assessed in HCT-116 human colon carcinoma cells by XTT (2,3-bis(2-methoxy-4-nitro-5-sulfphenyl)-5-[(phenylamino)carbonyl]2H-tetrazolium hydroxide) assay as reported in D. A. Scudiero, et al., \"Evaluation of soluble tetrazolium/formazan assay for cell growth and drug sensitivity in culture using human and other tumor cell lines,\" Cancer Res. 48:4827-4833, 1988. Cells were plated at 4000 cells/well in 96 well microtiter plates and 24 hours later drugs were added and serial diluted. The cells were incubated at 37° C. for 72 hours at which time the tetrazolium dye, XTT, was added. A dehydrogenase enzyme in live cells reduces the XTT to a form that absorbs light at 450 nm which can be quantitated spectrophotometrically. The greater the absorbance, the greater the number of live cells. The results are expressed as an IC50, which is the drug concentration required to inhibit cell proliferation (i.e., absorbance at 450 nm) to 50% of that of untreated control cells."}, "[2]": {"test_system": "human colon carcinoma cells HCT-116/VM46", "assay": "XTT in vitro cytotoxicity assay, HCT-116/VM46 multi-drug resistant human colon carcinoma cells", "format": "cell-based", "method": "as §1"}, "[3]": {"settings": "HCT-116, 72 h, read-out: IC50 HCT116 (nM)"}, "[4]": {"settings": "HCT-116/VM46, 72 h, read-out: IC50 HCT116/VM46 (nM)"}, "[5]": {"settings": "HCT-116, XTT, 72 hours at 37° C., inhibition of cell proliferation to 50% of untreated control, read-out: IC50 HCT116"}, "[6]": {"settings": "HCT-116/VM46, XTT, 72 hours at 37° C., teniposide-selected cells, multi-drug resistance phenotype incl. resistance to paclitaxel, read-out: IC50 HCT116/VM46"}},
  "note": "Read-outs that look alike come from different tables or passages of the source.",
  "data": [
    {"smiles": "CC(=O)O[C@H]1C(=O)[C@]2(C)[C@@H]3O[C@@H]3[C@H]3OC[C@@]3(OC(C)=O)[C@H]2[C@H](OC(=O)c2ccccc2)[C@]2(O)C[C@H](OC(=O)[C@H](O)[C@@H](NC(=O)c3ccccc3)c3ccccc3)C(C)=C1C2(C)C", "note": "[Ia, 6,7-α-Epoxypaclitaxel]", "values": [
      {"measurement": "IC50", "setting": "[1]; [3]", "value": 1.2, "unit": "nM"},
      {"measurement": "IC50", "setting": "[2]; [4]", "value": 30.5, "unit": "nM"}
    ]},
    {"smiles": "CC(=O)O[C@H]1C(=O)[C@]2(C)[C@@H]3O[C@@H]3[C@H]3OC[C@@]3(OC(C)=O)[C@H]2[C@H](OC(=O)c2ccccc2)[C@]2(O)C[C@H](OC(=O)[C@H](O)[C@@H](NC(=O)OC(C)(C)C)c3ccco3)C(C)=C1C2(C)C", "note": "[Ib, 3'-N-Debenzoyl-N-t-butoxycarbonyl-3'-desphenyl-3'-(2-furyl)-6,7-α-epoxypaclitaxel]", "values": [
      {"measurement": "IC50", "setting": "[1]; [5]", "value": "1.3 to 3", "unit": "nM"},
      {"measurement": "IC50", "setting": "[2]; [6]", "value": "2.8 to 13.9", "unit": "nM"}
    ]},
    {"smiles": "CC(=O)O[C@H]1C(=O)[C@]2(C)[C@@H]3O[C@@H]3[C@H]3OC[C@@]3(OC(C)=O)[C@H]2[C@H](OC(=O)c2ccccc2)[C@]2(O)C[C@H](OC(=O)[C@H](O)[C@@H](NC(=O)c3ccccc3)c3ccco3)C(C)=C1C2(C)C", "note": "[Ic, 3'-Desphenyl-3'-(2-furyl)-6,7-α-epoxypaclitaxel]", "values": [
      {"measurement": "IC50", "setting": "[1]; [3]", "value": 0.6, "unit": "nM"},
      {"measurement": "IC50", "setting": "[2]; [4]", "value": 12.3, "unit": "nM"}
    ]},
    {"smiles": "CC(=O)O[C@H]1C(=O)[C@]2(C)[C@@H]3O[C@@H]3[C@H]3OC[C@@]3(OC(C)=O)[C@H]2[C@H](OC(=O)c2ccccc2)[C@]2(O)C[C@H](OC(=O)[C@H](O)[C@H](C=C(C)C)NC(=O)OC(C)(C)C)C(C)=C1C2(C)C", "note": "[Id, 3'-N-Debenzoyl-N-t-butoxycarbonyl-3'-desphenyl-3'-isobutenyl-6,7-α-epoxypaclitaxel]", "values": [
      {"measurement": "IC50", "setting": "[1]; [3]", "value": 1.3, "unit": "nM"},
      {"measurement": "IC50", "setting": "[2]; [4]", "value": 3.3, "unit": "nM"}
    ]},
    {"smiles": "CC(=O)O[C@H]1C(=O)[C@@]2(C)[C@H]([C@H](OC(=O)c3ccccc3)[C@]3(O)C[C@H](OC(=O)[C@H](O)[C@@H](NC(=O)c4ccccc4)c4ccccc4)C(C)=C1C3(C)C)[C@]1(OC(C)=O)CO[C@@H]1C[C@@H]2O", "note": "[paclitaxel]", "values": [
      {"measurement": "IC50", "setting": "[1]; [5]", "value": "1.3 to 3.5", "unit": "nM"},
      {"measurement": "IC50", "setting": "[2]; [6]", "value": "244 to 403", "unit": "nM"}
    ]}
  ]
}
